For 64 compounds, activation results are on record in PubChem BioAssay AID977605 (Broad Institute, 2014).

Activity calls are given as the source filed them.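 How the source made its calls: active means fitted curve reaches 40% activation below the top valid tested dose, in every test run; inconclusive means test runs disagree on the call; inactive means the rest, including effects opposite to the expected direction.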

The nature of one assay: E-selectin inducers in HUVECs, dose response, imaging, HUVEC, cherry-picked samples (AID 977605).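 Further: signal is the share of imaged cells scored positive for E-selectin.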 The conditions noted are these: HUVEC E-selectin immunostaining, at 18 µM (top of the series), percent of TNF-alpha response over vehicle.
For `C[C@@H]1CN([C@H](C)CO)C(=O)Cc2cc(NC(=O)Cc3ccccc3)ccc2O[C@H]1CN(C)C(=O)Nc1cccc2ccccc12`, the activation is 0.676% (inactive).

The assay is the same for the next values; noted with them: HUVEC E-selectin immunostaining, at 19.5 µM (top of the series), percent of TNF-alpha response over vehicle.
For `Cc1noc(C)c1S(=O)(=O)Nc1ccc2c(c1)CC(=O)N([C@H](C)CO)C[C@H](C)[C@@H](CN(C)C(=O)Nc1cccc3ccccc13)O2`, the activation was -0.095% (inactive).

Consider `CCn1nc(CC(=O)O)c2ccccc2c1=O`, for which the activation is 5.69% (inactive).

For `COc1ccc(NC(=O)CCCn2c(=S)[nH]c3ccccc3c2=O)cc1`, the activation was 1.61% (inactive).

With `C[C@@H]1CN([C@@H](C)CO)C(=O)Cc2cc(NS(C)(=O)=O)ccc2O[C@@H]1CN(C)S(=O)(=O)c1cn(C)cn1`, the activation is -0.013% (inactive).

Turning to `COc1cccc(CCC(=O)N2CCC(n3nccc3NC(=O)CC(C)C)CC2)c1`, the activation is -0.002% (inactive).

Take `C[C@H]1CN([C@@H](C)CO)C(=O)c2cccc(NS(C)(=O)=O)c2O[C@@H]1CN(C)Cc1ccc(Oc2ccccc2)cc1`: the activation is 0.027% (inactive).

As to `COc1ccc(S(=O)(=O)Nc2ccc3c(c2)CC(=O)N([C@H](C)CO)C[C@H](C)[C@@H](CN(C)C(=O)NC2CCCCC2)O3)cc1`, the activation was -0.163% (inactive).

With `CC(C)NC(=O)N(C)C[C@@H]1Oc2ccc(NC(=O)CCN3CCOCC3)cc2C(=O)N([C@H](C)CO)C[C@H]1C`, the activation is -0.003% (inactive).

`Cc1noc(C)c1S(=O)(=O)N(C)C[C@H]1Oc2ccc(NS(C)(=O)=O)cc2CC(=O)N([C@@H](C)CO)C[C@H]1C`: the activation was 0.259% (inactive).

For `C[C@@H]1CN([C@H](C)CO)C(=O)Cc2cc(NC(=O)Cc3ccccc3)ccc2O[C@H]1CN(C)S(C)(=O)=O`, the activation was -0.135% (inactive).

Take `COc1ccc(CN(C)C[C@@H]2Oc3c(NC(=O)Nc4ccc(F)cc4)cccc3C(=O)N([C@@H](C)CO)C[C@H]2C)cc1`: the activation was 8.09% (inactive).

As for `CCOc1ccccc1NC(=O)N1CCC(NC(=O)C2CCCCC2)CC1`, the activation was -0.152% (inactive).

As to `C[C@H]1CN([C@@H](C)CO)C(=O)c2cc(NC(=O)CCN3CCOCC3)ccc2O[C@H]1CN(C)S(=O)(=O)c1ccc(Cl)cc1`, the activation was -0.234% (inactive).

Turning to `CCC(=O)N(C)C[C@H]1Oc2ncc(Br)cc2C(=O)N([C@@H](C)CO)C[C@H]1C`, the activation was -0.195% (inactive).

`CN(C)c1cccc(C(=O)NCc2ccc3c(c2)OCO3)c1`: the activation was 8.26% (inactive).

With `COc1ccc(S(=O)(=O)Nc2ccc3c(c2)CC(=O)N([C@H](C)CO)C[C@H](C)[C@H](CN(C)C(=O)NC2CCCCC2)O3)cc1`, the activation was -0.057% (inactive).

`CN(CC(=O)Nc1ccc(Cl)c(Cl)c1)C1CCCCC1`: the activation was -0.064% (inactive).

For `C[C@@H]1CN([C@@H](C)CO)C(=O)Cc2cc(NC(=O)Cn3cnnn3)ccc2O[C@H]1CN(C)Cc1ccc(Oc2ccccc2)cc1`, the activation is 0.416% (inactive).

With `C[C@@H]1CN([C@@H](C)CO)C(=O)Cc2cc(NC(=O)C3CC3)ccc2O[C@@H]1CN(C)C(=O)Nc1ccccc1`, the activation was 0.276% (inactive).

Take `C[C@@H]1CN([C@@H](C)CO)C(=O)c2cc(NS(=O)(=O)c3cccs3)ccc2O[C@@H]1CN(C)S(C)(=O)=O`: the activation is -0.005% (inactive).

`CCOC(=O)N1CCN(c2c(N3CCOCC3)c(=O)c2=O)CC1`: the activation was 7.45% (inactive).

As for `Cc1ccc(S(=O)(=O)NNC(=O)c2cccc(O)c2)cc1`, the activation is -0.007% (inactive).

Take `CCCC#Cc1ccc2c(c1)O[C@@H](CN(C)CCC)[C@@H](C)CN([C@@H](C)CO)S2(=O)=O`: the activation is -0.152% (inactive).

For `C[C@@H]1CN([C@@H](C)CO)C(=O)c2cc(NC(=O)Nc3ccc(F)cc3)ccc2O[C@@H]1CN(C)S(=O)(=O)c1cccs1`, the activation was -0.142% (inactive).

In the case of `CN(CC(=O)Nc1ccc(Br)cc1)Cc1ccccc1`, the activation was 0.013% (inactive).

Consider `C[C@H](CO)N1C[C@H](C)[C@@H](CN(C)Cc2ccc(C(F)(F)F)cc2)Oc2ccc(NC(=O)CCC(F)(F)F)cc2C1=O`, for which the activation is 0.441% (inactive).

In the case of `Cc1ccsc1CN(C)Cc1nc(C2CC2)no1`, the activation was 1.75% (inactive).

Consider `C[C@@H]1CN([C@H](C)CO)C(=O)c2cccc(NC(=O)c3ccc(-c4nccs4)cc3)c2O[C@H]1CN(C)Cc1ccc(Oc2ccccc2)cc1`, for which the activation was 9.5% (inactive).

Turning to `Cc1ccc(S(=O)(=O)Nc2ccc3c(c2)C(=O)N([C@H](C)CO)C[C@@H](C)[C@H](CN(C)Cc2ccc(-c4ccccc4)cc2)O3)cc1`, the activation was -0.157% (inactive).

Turning to `C[C@H]1CN([C@@H](C)CO)C(=O)c2cc(NC(=O)CCCCCC(=O)Nc3ccccc3N)ccc2O[C@H]1CN(C)C(=O)Nc1ccc(F)cc1`, the activation is 0.137% (inactive).

For the compound `COc1ccc(S(=O)(=O)Nc2ccc3c(c2)C(=O)N([C@@H](C)CO)C[C@@H](C)[C@@H](CN(C)C(=O)Nc2cccc4ccccc24)O3)cc1`, the activation was -0.103% (inactive).

As for `C[C@@H]1CN([C@@H](C)CO)C(=O)c2cccc(NC(=O)c3ccc(-c4nccs4)cc3)c2O[C@@H]1CN(C)Cc1ccc(Cl)c(Cl)c1`, the activation is 0.039% (inactive).

Turning to `C[C@@H]1CN([C@@H](C)CO)C(=O)c2cccc(NS(=O)(=O)c3cn(C)cn3)c2O[C@H]1CN(C)Cc1ccncc1`, the activation is -0.172% (inactive).

Consider `O=C(NCc1ccccc1)C1CCCN(S(=O)(=O)c2ccc(-n3cnnn3)cc2)C1` (centres undefined), for which the activation is 1.85% (inactive).

For the compound `C[C@H]1CN([C@@H](C)CO)C(=O)c2cc(NC(=O)Nc3ccc4c(c3)OCO4)ccc2O[C@@H]1CN(C)S(=O)(=O)c1ccc(F)cc1`, the activation was -0.105% (inactive).

For `C[C@H]1CN([C@@H](C)CO)C(=O)Cc2cc(NC(=O)C3CC3)ccc2O[C@@H]1CN(C)S(=O)(=O)c1cccs1`, the activation is -0.038% (inactive).

As to `O=C(c1ccco1)N1CCN(C(=O)C2CC2)CC1`, the activation is -0.098% (inactive).

`CC12CCC(=O)N1C(C(=O)Nc1cc(Cl)ccc1N1CCOCC1)CS2` (centres undefined): the activation was -0.124% (inactive).

For the compound `COc1ccc(S(=O)(=O)N(C)C[C@@H]2Oc3ccc(NS(=O)(=O)c4c(C)noc4C)cc3C(=O)N([C@@H](C)CO)C[C@H]2C)cc1`, the activation was -0.096% (inactive).

On to `N#CC1(NC(=O)CN2C(=O)c3ccccc3C2=O)CCCCC1`, for which the activation is 16.1% (inactive).

As for `C[C@@H]1CN([C@H](C)CO)C(=O)Cc2cc(NC(=O)Nc3ccc4c(c3)OCO4)ccc2O[C@H]1CN(C)Cc1ccc(Cl)c(Cl)c1`, the activation is 0.291% (inactive).

On to `Cc1cc2cc(CNC(=O)c3ccc(S(=O)(=O)N4CCCCC4)cc3)ccc2n1C`, for which the activation is 0.135% (inactive).

In the case of `CC(C)NC(=O)Nc1ccc2c(c1)C(=O)N([C@@H](C)CO)C[C@H](C)[C@@H](CN(C)Cc1ccc(C(F)(F)F)cc1)O2`, the activation is -0.03% (inactive).

For the compound `CCCCOCC1CN(CCCC)S(=O)(=O)c2c(Oc3ccc(C(C)C)cc3)cccc2O1` (centres undefined), the activation is -0.279% (inactive).

`C[C@@H]1CN([C@@H](C)CO)C(=O)c2cc(NC(=O)Cn3cnnn3)ccc2O[C@@H]1CN(C)Cc1ccc(Oc2ccccc2)cc1`: the activation was -0.116% (inactive).

With `CN(Cc1ccsc1)C(=O)CCc1nnc(CCCc2ccccc2)o1`, the activation was 1.14% (inactive).

On to `C[C@@H]1CN([C@@H](C)CO)C(=O)c2cc(NS(=O)(=O)c3cccs3)ccc2O[C@H]1CN(C)C(=O)Nc1ccc2c(c1)OCO2`, for which the activation was -0.287% (inactive).

In the case of `C[C@@H]1CCCCO[C@@H](CN(C)C(=O)Cc2ccccc2)[C@@H](C)CN([C@H](C)CO)C(=O)c2cc(NS(=O)(=O)c3cccs3)ccc2O1`, the activation is 0.129% (inactive).

With `Cc1ccc(NCC(=O)N2CCN(S(=O)(=O)c3ccccc3)CC2)cc1F`, the activation is 0.075% (inactive).

Take `O=C(CCC(=O)N1CCOCC1)Nc1ccc(Cl)c(Cl)c1`: the activation is 0.295% (inactive).

As for `CCOc1ccc(C(=O)N2CCN(S(=O)(=O)c3cccs3)CC2)c(OCC)c1`, the activation is -0.235% (inactive).

For `C[C@H]1CN([C@@H](C)CO)C(=O)c2cc(NC(=O)Nc3ccc(F)cc3)ccc2O[C@H]1CN(C)S(C)(=O)=O`, the activation was 4.69% (inactive).

`C=CCn1c(=N)n(CC(=O)c2ccc(Br)s2)c2ccccc21`: the activation was 1.81% (inactive).

As for `COc1cc(CC2C(=O)Nc3ccccc32)cc(C)c1O` (centres undefined), the activation is 36.1% (inactive).

Take `COc1cccc(NC(=O)c2ccc(OC(F)(F)F)cc2)c1`: the activation is 0.305% (inactive).

Staying with this assay, now noted: HUVEC E-selectin immunostaining, at 21 µM (top of the series), percent of TNF-alpha response over vehicle.
As to `C[C@H](CO)N1C[C@H](C)[C@@H](CN(C)S(=O)(=O)c2ccc(F)cc2)Oc2ccc(NS(C)(=O)=O)cc2CC1=O`, the activation was 0.279% (inactive).

Turning to `C[C@@H]1CN([C@H](C)CO)C(=O)c2cc(NS(=O)(=O)c3cn(C)cn3)ccc2O[C@H]1CN(C)Cc1ccncc1`, the activation is -0.069% (inactive).

For `C[C@H]1CN([C@@H](C)CO)C(=O)c2cc(NS(=O)(=O)c3cccs3)ccc2O[C@H]1CN(C)S(C)(=O)=O`, the activation was 0.402% (inactive).

With `C[C@@H]1CN([C@H](C)CO)C(=O)c2cccc(NC(=O)Nc3ccc4c(c3)OCO4)c2O[C@H]1CN(C)C(=O)Nc1ccc(C(F)(F)F)cc1`, the activation was 0.262% (inactive).

On to `C[C@@H]1CN([C@@H](C)CO)C(=O)c2cc(NC(=O)Nc3ccc4c(c3)OCO4)ccc2O[C@H]1CN(C)Cc1ccc(-c2ccccc2)cc1`, for which the activation was 2.77% (inactive).

For `C[C@@H]1CN([C@H](C)CO)C(=O)Cc2cc(NC(=O)Nc3ccc(F)cc3)ccc2O[C@@H]1CN(C)S(=O)(=O)c1cn(C)cn1`, the activation was -0.103% (inactive).

In the case of `C[C@@H]1CN([C@H](C)CO)C(=O)c2cc(NC(=O)c3ccncc3)ccc2O[C@@H]1CN(C)C(=O)Nc1ccc2c(c1)OCO2`, the activation was 0.64% (inactive).

On to `C[C@H](CO)N1C[C@H](C)[C@H](CN(C)S(C)(=O)=O)Oc2c(NS(C)(=O)=O)cccc2C1=O`, for which the activation was -0.054% (inactive).
